Assay results: US20240306670A1, “BERBERINE ALKALOIDS IN THE PREVENTION AND/OR TREATMENT OF INTESTINAL DISEASE” (priority 2017, published 2024)
Read-outs that look alike come from different tables or passages of the source.

Test system: Clostridium Perfringens (type A strain EHE-NE36) after Eimeria oocyst challenge
Settings: for Median Duodenal Lesion Score (0 absent to 4 severe) / Median Ilial Lesion Score (0 absent to 4 severe) / Median Jejunal Lesion Score (0 absent to 4 severe): 16 days
[1] = NE challenge, IVP 0.1 g/L in-water, groups 7, 8
[2] = NE challenge, IVP 0.20 g/kg in-feed, group 11
[3] = NE challenge, IVP 1.0 g/L in-water, groups 9, 10
[4] = NE challenge, IVP 2.0 g/kg in-feed, group 12
[5] = Necrotic Enteritis, IVP feed 0.2 g/kg, group 11, isolator 9, 11 birds
[6] = Necrotic Enteritis, IVP feed 2 g/kg, group 12, isolator 3, 15 birds
[7] = Necrotic Enteritis, IVP water 0.1 g/L, 'Mean' line of groups 7 and 8, 28 birds
[8] = Necrotic Enteritis, IVP water 0.1 g/L, group 7, isolator 6, 13 birds
[9] = Necrotic Enteritis, IVP water 0.1 g/L, group 8, isolator 11, 15 birds
[10] = Necrotic Enteritis, IVP water 1.0 g/L, 'Mean' line of groups 9 and 10, 25 birds
[11] = Necrotic Enteritis, IVP water 1.0 g/L, group 9, isolator 2, 9 birds
[12] = Necrotic Enteritis, IVP water 1.0 g/L, group 10, isolator 8, 16 birds
[13] = Nil Challenge, IVP water 1.0 g/L, 'Mean' line of groups 3 and 4, 25 birds
[14] = Nil Challenge, IVP water 1.0 g/L, group 3, isolator 10, 10 birds
[15] = Nil Challenge, IVP water 1.0 g/L, group 4, isolator 4, 15 birds
[16] = Nil challenge, IVP 1.0 g/L in-water, groups 3, 4

COc1ccc2cc3[n+](cc2c1OC)CCc1cc2c(cc1-3)OCO2 [IRP001 chloride, berberine chloride]
Median Duodenal Lesion Score (0 absent to 4 severe) [1]: 4 | Median Ilial Lesion Score (0 absent to 4 severe) [1]: 4 | Median Jejunal Lesion Score (0 absent to 4 severe) [1]: 4 | Median Duodenal Lesion Score (0 absent to 4 severe) [2]: 4 | Median Ilial Lesion Score (0 absent to 4 severe) [2]: 4 | Median Jejunal Lesion Score (0 absent to 4 severe) [2]: 4 | Median Duodenal Lesion Score (0 absent to 4 severe) [3]: 1 | Median Ilial Lesion Score (0 absent to 4 severe) [3]: 1 | Median Jejunal Lesion Score (0 absent to 4 severe) [3]: 1 | Median Duodenal Lesion Score (0 absent to 4 severe) [4]: 1 | Median Ilial Lesion Score (0 absent to 4 severe) [4]: 1 | Median Jejunal Lesion Score (0 absent to 4 severe) [4]: 1 | Mortalities prior to autopsy [5]: 9 | Mortality % [5]: 82% | Mortalities prior to autopsy [6]: 2 | Mortality % [6]: 13% | Mortalities prior to autopsy [7]: 22 | Mortality % [7]: 79% | Mortalities prior to autopsy [8]: 12 | Mortality % [8]: 92% | Mortalities prior to autopsy [9]: 10 | Mortality % [9]: 67% | Mortalities prior to autopsy [10]: 0 | Mortality % [10]: 0% | Mortalities prior to autopsy [11]: 0 | Mortality % [11]: 0% | Mortalities prior to autopsy [12]: 0 | Mortality % [12]: 0% | Mortalities prior to autopsy [13]: 0 | Mortality % [13]: 0% | Mortalities prior to autopsy [14]: 0 | Mortality % [14]: 0% | Mortalities prior to autopsy [15]: 0 | Mortality % [15]: 0% | Median Duodenal Lesion Score (0 absent to 4 severe) [16]: 0 | Median Ilial Lesion Score (0 absent to 4 severe) [16]: 0 | Median Jejunal Lesion Score (0 absent to 4 severe) [16]: 0
